Measured values: PubChem BioAssay (NCI)
Several values for one entry are separate records, joined by “and”; a condition that tells them apart may be missing. Equal entries are not always repeated.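 Each compound was tested at five concentrations against cells in 96-well plates for 48 hours. GI50: concentration for 50% inhibition of growth. TGI: total growth inhibition.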

Assays:
Assay in all cases: inhibition of tumour cell growth, NCI panel, 48 h
[1] = system: NCI-H460 lung
[2] = system: OVCAR-5 ovarian
[3] = system: NCI-H23 lung
[4] = system: KM12 colon
[5] = system: MOLT-4 leukemia
[6] = system: SF-539 CNS
[7] = system: OVCAR-4 ovarian
[8] = system: 786-0 renal
[9] = system: MALME-3M melanoma
[10] = system: RXF 393 renal

With `C[C@]12CC[C@@H]3c4ccc(Oc5nc(N6CC6)nc(N6CC6)n5)cc4CC[C@H]3[C@@H]1CCC2=O` the GI50 [1] was 0.517 µM, the TGI [1] was 2.79 µM and the GI50 [2] was 12.1 µM. The TGI [2] was 30.2 µM, the GI50 [3] was 3.36 µM and the TGI [3] was 19 µM. It also gave a GI50 [4] of 5.5 µM, a TGI [4] of 20 µM and a GI50 [5] of 0.747 µM. For the same molecule, the TGI [5] was 4.97 µM, the GI50 [6] was 2.2 µM and the TGI [6] was 7.43 µM. For the same molecule, the GI50 [7] was 3.38 µM, the TGI [7] was 15.2 µM and the GI50 [8] was 3.41 µM. For the same molecule, the TGI [8] was 22.3 µM.

In the case of `Cc1cc(C2CCCCC2)n(O)c(=O)c1`, the GI50 [1] is reported as 0.507 µM, the GI50 [2] is reported as 6.13 µM and the TGI [2] is reported as > 100 µM. For the same molecule, the GI50 [3] was 3.03 µM, the TGI [3] was > 100 µM and 64.8 µM and the GI50 [4] was 2.53 µM. For the same molecule, the TGI [4] was > 100 µM, the GI50 [9] was 2.66 µM and the TGI [9] was > 100 µM and 49.4 µM. For the same molecule, the TGI [5] was > 100 µM, the GI50 [6] was 2.04 µM and the TGI [6] was 80.9 µM and 93.8 µM. For the same molecule, the GI50 [7] was 0.75 µM, the TGI [7] was > 100 µM and the GI50 [10] was 3.02 µM. The TGI [10] was > 100 µM and 97.2 µM, the GI50 [8] was 2.26 µM and the TGI [8] was > 100 µM.

For `Nc1c(-c2ccc(Br)cc2)[n+]([O-])c2ccccc2[n+]1[O-]`, the TGI [1] was > 100 µM, the TGI [2] was > 100 µM and the TGI [3] was > 100 µM. The TGI [4] was > 100 µM, the TGI [9] was > 100 µM and the TGI [5] was > 100 µM. The TGI [6] was > 100 µM, the TGI [7] was > 100 µM and the TGI [8] was > 100 µM.

`CSc1ccc(/C=C2/C[N+](C)(C)C/C(=C/c3ccc(SC)cc3)C2=O)cc1` gave a TGI [2] of 44 µM, a TGI [4] of 15.9 µM and a TGI [9] of 27.5 µM. The TGI [5] was 67.4 µM, the TGI [6] was 34 µM and the TGI [10] was 31.6 µM. It also gave a TGI [8] of 26.8 µM.

For `CCOC(=O)NC(=O)c1cn(CCCOC(=O)NCCCCCCNC(=O)OCCCn2c(=O)c(C(=O)NC(=O)OCC)cn(C)c2=O)c(=O)n(C)c1=O`, the TGI [1] was > 100 µM, the TGI [2] was > 100 µM and the TGI [3] was > 100 µM. The TGI [4] was > 100 µM, the TGI [9] was > 100 µM and the TGI [5] was > 100 µM. For the same molecule, the TGI [7] was > 100 µM, the TGI [10] was 92.4 µM and the TGI [8] was > 100 µM.

In the case of `CN(C)C(=S)/N=c1\ss/c(=N\C(=S)N(C)C)n1-c1ccc2c(c1)OCO2`, the TGI [2] is reported as > 100 µM, the TGI [3] is reported as > 100 µM and the TGI [4] is reported as > 100 µM. The TGI [9] was > 100 µM, the TGI [6] was > 100 µM and the TGI [7] was > 100 µM. For the same molecule, the TGI [10] was > 100 µM and the TGI [8] was > 100 µM.

With `Cc1ccc(NC(=O)C2C(=O)N(c3ccc(C)c(C)c3)C(=O)/C2=N/O)cc1C` (configuration not stated) the TGI [1] was > 100 µM, the TGI [2] was > 100 µM and the TGI [3] was > 100 µM. The TGI [4] was > 100 µM, the TGI [9] was > 100 µM and the TGI [5] was > 100 µM. For the same molecule, the TGI [6] was > 100 µM, the TGI [10] was > 100 µM and the TGI [8] was > 100 µM.

For `CCCCC/C=C/C/C=C/CCCCCCCC1=NC(C)(C)CN1C(C)C`, the GI50 [1] was 1.82 µM, the TGI [1] was 3.34 µM and the GI50 [2] was 1.87 µM. For the same molecule, the TGI [2] was 4.1 µM, the GI50 [3] was 1.49 µM and the TGI [3] was 3.24 µM. It also gave a GI50 [4] of 1.61 µM, a TGI [4] of 2.96 µM and a GI50 [6] of 1.82 µM. For the same molecule, the TGI [6] was 3.3 µM, the GI50 [7] was 1.55 µM and the TGI [7] was 3 µM. It also gave a GI50 [10] of 2.1 µM, a TGI [10] of 4.8 µM and a GI50 [8] of 2.24 µM. The TGI [8] was 5.12 µM.

`Cc1cccc(C(C)(C)C)c1NC(=O)CCc1n[nH]c(=S)o1` was tested, and the TGI [1] was > 100 µM, the TGI [2] was > 100 µM and the TGI [3] was > 100 µM. The TGI [4] was > 100 µM, the TGI [9] was > 100 µM and the TGI [5] was > 100 µM. The TGI [6] was > 100 µM, the TGI [7] was > 100 µM and the TGI [8] was > 100 µM.

For `NCCCNCCSSCCCCS(=O)O`, the TGI [1] was > 100 µM, the TGI [2] was > 100 µM and the TGI [3] was 43.5 µM. The TGI [9] was 49.2 µM, the TGI [5] was 47.1 µM and the TGI [6] was > 100 µM. The TGI [7] was 28.2 µM, the TGI [10] was 79.8 µM and the TGI [8] was > 100 µM.

`CCN(CC)C(=O)C/C(C)=N/NC(=O)c1ccncc1` was tested, and the TGI [1] was > 100 µM, the TGI [2] was > 100 µM and the TGI [3] was > 100 µM. The TGI [4] was > 100 µM, the TGI [9] was > 100 µM and the TGI [5] was > 100 µM. For the same molecule, the TGI [6] was > 100 µM, the TGI [10] was > 100 µM and the TGI [8] was > 100 µM.

`Cc1c2c(nn1-c1ccc(S(=O)(=O)/N=C3\SCC(=O)N3C(=O)c3ccccc3)cc1)-c1ccccc1CC2` was tested, and the GI50 [1] was 47.5 µM, the TGI [1] was > 100 µM and the GI50 [2] was 49.9 µM. The TGI [2] was > 100 µM, the GI50 [3] was 27.7 µM and the TGI [3] was 73.2 µM. For the same molecule, the GI50 [4] was 51.4 µM, the TGI [4] was > 100 µM and the GI50 [5] was > 100 µM. The TGI [5] was > 100 µM, the GI50 [7] was 77.5 µM and the TGI [7] was > 100 µM. The GI50 [10] was 28.8 µM, the TGI [10] was 77.5 µM and the GI50 [8] was 28.9 µM. It also gave a TGI [8] of 77.9 µM.

Molecule `N#C/C(C(=S)Nc1ccccc1)=C1/NN=C2c3ccccc3C(=O)NN21` has a GI50 [1] of 26.3 µM, a TGI [1] of 73.2 µM and a GI50 [2] of 56.1 µM. The TGI [2] was > 100 µM, the GI50 [4] was 16.1 µM and the TGI [4] was 58.4 µM. For the same molecule, the GI50 [9] was 13.9 µM, the TGI [9] was > 100 µM and the GI50 [5] was 32.1 µM. For the same molecule, the TGI [5] was > 100 µM, the GI50 [6] was 18.7 µM and the TGI [6] was 40.9 µM. The GI50 [7] was 26.2 µM, the TGI [7] was 91.2 µM and the GI50 [10] was 0.512 µM. The TGI [10] was 22.9 µM, the GI50 [8] was 38 µM and the TGI [8] was > 100 µM.

For `Cc1cc(NS(=O)(=O)c2ccc(NC(=O)c3cccc4c(=O)c5ccccc5[nH]c34)cc2)no1`, the TGI [1] was > 100 µM, the TGI [2] was > 100 µM and the TGI [3] was > 100 µM. For the same molecule, the TGI [4] was > 100 µM, the TGI [9] was > 100 µM and the TGI [5] was > 100 µM. For the same molecule, the TGI [6] was > 100 µM, the TGI [7] was > 100 µM and the TGI [8] was 38.2 µM.
